Experimental data from PMC7914897, “Cytotoxic Potential of a-Azepano- and 3-Amino-3,4-SeCo-Triterpenoids” (International Journal of Molecular Sciences, 2021).
Like-named read-outs stand apart in the source and are kept apart here.

Key:
[1] = tested on: MOLT-4 (Leukemia); experiment: NCI-60 screen (SRB, 48 h); details: Homo sapiens
[2] = tested on: Melanoma subpanel; experiment: NCI-60 screen, subpanel; details: Homo sapiens
[3] = tested on: Leukemia subpanel; experiment: cells; details: Homo sapiens
[4] = tested on: NCI-H322M (NSC lung cancer); experiment: NCI-60 screen (SRB, 48 h)
[5] = tested on: panel of approximately 60 cancer cell lines; experiment: NCI-60 screen (SRB, 48 h), full panel
[6] = tested on: CNS cancer subpanel; experiment: NCI-60 screen, subpanel; details: Homo sapiens
[7] = tested on: NCI-H522 (NSC lung cancer); experiment: NCI-60 screen (SRB, 48 h); details: Homo sapiens
[8] = tested on: Colon Cancer subpanel; experiment: NCI-60 screen, subpanel; details: Homo sapiens
[9] = tested on: MDA-MB-468 (Breast cancer); experiment: cells; details: Homo sapiens
[10] = tested on: KM12 (Colon cancer); experiment: NCI-60 screen (SRB, 48 h); details: Homo sapiens
[11] = tested on: A498 (Renal cancer); experiment: NCI-60 screen (SRB, 48 h); details: Homo sapiens
[12] = tested on: UACC-257 (Melanoma); experiment: NCI-60 screen (SRB, 48 h); details: Homo sapiens
[13] = tested on: NCI-H226 (NSC lung cancer); experiment: NCI-60 screen (SRB, 48 h); details: Homo sapiens
[14] = tested on: NIH 3T3 (non-malignant mouse fibroblasts); experiment: SRB cytotoxicity assay, 72 h; format: cell-based; details: Mus musculus, NIH3T3; NIH 3T3, 72 h, cut-off 30 µM; read-out: EC50
Experimental: The cytotoxicity of compounds 1–20 was evaluated by means of a colorimetric sulforhodamine B (SRB) assay. For all compounds, the EC50 values were determined for the human tumor cell lines A375 (malignant melanoma), HT29 (colorectal carcinoma), MCF-7 (breast carcinoma), A2780 (ovarian carcinoma), FaDu (hypopharyngeal carcinoma), and NIH 3T3 (non-malignant mouse fibroblasts).
In short, exponentially growing cells were seeded into 96-well plates on day 0 at the appropriate cell densities to prevent confluence of the cells during the period of experiment. After 24 h, the cells were treated with serial dilutions of the compounds (0–30 µM) for 72 h. The final concentration of DMSO never exceeded 0.5%, which was non-toxic to the cells. After a 72 h treatment, the supernatant medium from the 96-well plates was discarded, and the cells were fixed with 10% TCA. For a thorough fixation, the plates were allowed to rest at 4 °C. After fixation, the cells were washed in a strip washer. The washing was done four times with water using alternate dispensing and aspiration procedures. The plates were then dyed with 100 µL of 0.4% SRB for about 20 min. After dying, the plates were washed with 1% acetic acid to remove the excess of the dye and allowed to air-dry overnight. Tris base solution (200 µL, 10 mM) was added to each well and absorbance was measured at λ = 570 nm (using a 96 well plate reader, Tecan Spectra, Crailsheim, Germany). The percentages of surviving cells relative to untreated controls were determined.

[15] = tested on: SNB-75 (CNS cancer); experiment: NCI-60 screen (SRB, 48 h)
[16] = tested on: NCI-H460 (NSC lung cancer); experiment: NCI-60 screen (SRB, 48 h); details: Homo sapiens
[17] = tested on: Breast cancer subpanel; experiment: NCI-60 screen, subpanel; details: Homo sapiens
[18] = tested on: 786-0 (Renal cancer); experiment: NCI-60 screen (SRB, 48 h); details: Homo sapiens
[19] = tested on: OVCAR-3 (Ovarian cancer); experiment: cells; details: Homo sapiens
[20] = tested on: MDA-MB-31/ATCC (Breast cancer); experiment: NCI-60 screen (SRB, 48 h); details: Homo sapiens
[21] = tested on: LOX IMVI (Melanoma); experiment: NCI-60 screen (SRB, 48 h); format: cell-based; details: Homo sapiens
[22] = tested on: OVCAR-4 (Ovarian cancer); experiment: NCI-60 screen (SRB, 48 h); format: cell-based; details: Homo sapiens
[23] = tested on: HCC-2998 (Colon cancer); experiment: NCI-60 screen (SRB, 48 h); details: Homo sapiens

SMILES: CC1(C)NCCC[C@]2(C)[C@H]3C=CC4=C5C[C@@](C)(CO)CC[C@]5(C)CC[C@@]4(C)[C@]3(C)CC[C@@H]12 [Compound 6, azepano-glycyrrhetol-diene]
- GI50 ([1]; MOLT-4): 2.46 µM
- IC (TGI) ([1]; MOLT-4, 48 h, read-out: TGI): 6.8 µM
- CC50 ([1]; MOLT-4, read-out: LC50): 38.2 µM
- IC (TGI) ([2]; 48 h, read-out: TGI MG_MID): 11.9 µM
- GI50 ([2]; read-out: GI50 MG_MID): 3.61 µM
- CC50 ([2]; read-out: LC50 MG_MID): 36 µM
- IC (TGI) ([3]; 48 h, read-out: TGI MG_MID): 10.2 µM
- GI50 ([3]; read-out: GI50 MG_MID): 3.02 µM
- CC50 ([3]; read-out: LC50 MG_MID): 55.5 µM
- Growth % of the Most Sensitive Cell Lines ([4]; 1 dose 10 µM): −99.73%
- GI50 ([4]; Homo sapiens): 4.78 µM
- IC (TGI) ([4]; Homo sapiens, 48 h, read-out: TGI): 16.9 µM
- CC50 ([4]; Homo sapiens, read-out: LC50): 42.1 µM
- Positive Cytotoxic Effect (cell lines with percent growth < 0 / total) ([5]; 1 dose 10 µM): 59/59
- number of cancer cell lines the compound was active against ([5]; 1 dose 10 µM): pronounced antiproliferative effect against the whole NCI-60 cancer cell line panel
- activity at 10 µM ([5]; Homo sapiens, 48 h, read-out: Mean Growth, %): -77.2%
- activity at 10 µM ([5]; Homo sapiens, 48 h, read-out: Range of Growth, %): -99.7 to -5.08%
- IC (TGI) ([5]; Homo sapiens, 48 h, read-out: TGI MG_MID60, average over all cell lines): 13.2 µM
- GI50 ([5]; Homo sapiens, read-out: GI50 MG_MID60): 4.21 µM
- GI50 ([5]; Homo sapiens, read-out: GI50 against all human tumor cell lines): < 15 µM
- CC50 ([5]; Homo sapiens, read-out: LC50 MG_MID60, average over all cell lines): 41.9 µM
- IC (TGI) ([6]; 48 h, read-out: TGI MG_MID): 13.5 µM
- GI50 ([6]; read-out: GI50 MG_MID): 4.53 µM
- CC50 ([6]; read-out: LC50 MG_MID): 39.7 µM
- GI50 ([7]; NCI-H522): 2.38 µM
- IC (TGI) ([7]; NCI-H522, 48 h, read-out: TGI): 7.31 µM
- CC50 ([7]; NCI-H522, read-out: LC50): 31.7 µM
- IC (TGI) ([8]; 48 h, read-out: TGI MG_MID): 16.7 µM
- GI50 ([8]; read-out: GI50 MG_MID): 5.11 µM
- CC50 ([8]; read-out: LC50 MG_MID): 48.2 µM
- GI50 ([9]; MDA-MB-468): 10.4 µM
- IC (TGI) ([9]; MDA-MB-468, 48 h, read-out: TGI): 24 µM
- CC50 ([9]; MDA-MB-468, read-out: LC50): 55.1 µM
- GI50 ([10]; KM12): 6.09 µM
- IC (TGI) ([10]; KM12, 48 h, read-out: TGI): 20.3 µM
- CC50 ([10]; KM12, read-out: LC50): 55.1 µM
- GI50 ([11]; A498): 11.4 µM
- IC (TGI) ([11]; A498, 48 h, read-out: TGI): 24.5 µM
- CC50 ([11]; A498, read-out: LC50): 52.7 µM
- GI50 ([12]; UACC-257): 5.24 µM
- IC (TGI) ([12]; UACC-257, 48 h, read-out: TGI): 17 µM
- CC50 ([12]; UACC-257, read-out: LC50): 43.8 µM
- GI50 ([13]; NCI-H226): 4 µM
- IC (TGI) ([13]; NCI-H226, 48 h, read-out: TGI): 16.9 µM
- CC50 ([13]; NCI-H226, read-out: LC50): 82.2 µM
- EC50 [14]: 11.7 ± 1.4 µM
- GI50 ([15]; Homo sapiens, SNB-75): 3.43 µM
- IC (TGI) ([15]; Homo sapiens, SNB-75, 48 h, read-out: TGI): 14.8 µM
- CC50 ([15]; Homo sapiens, SNB-75, read-out: LC50): 46.5 µM
- Growth % of the Most Sensitive Cell Lines ([15]; SNB-75, 1 dose 10 µM): −97.70%
- GI50 ([16]; NCI-H460): 4.17 µM
- IC (TGI) ([16]; NCI-H460, 48 h, read-out: TGI): 15.2 µM
- CC50 ([16]; NCI-H460, read-out: LC50): 46.2 µM
- IC (TGI) ([17]; 48 h, read-out: TGI MG_MID): 19.1 µM
- GI50 ([17]; read-out: GI50 MG_MID): 6.68 µM
- CC50 ([17]; read-out: LC50 MG_MID): 55.1 µM
- GI50 ([18]; 786-0): 2.66 µM
- IC (TGI) ([18]; 786-0, 48 h, read-out: TGI): 8.59 µM
- CC50 ([18]; 786-0, read-out: LC50): 40.9 µM
- GI50 ([19]; OVCAR-3): 2.69 µM
- IC (TGI) ([19]; OVCAR-3, 48 h, read-out: TGI): 7.06 µM
- CC50 ([19]; OVCAR-3, read-out: LC50): 34.8 µM
- GI50 [20]: 14.5 µM
- IC (TGI) ([20]; 48 h, read-out: TGI): 29.3 µM
- CC50 ([20]; read-out: LC50): 59.2 µM
- IC (TGI) ([21]; 48 h): 6.76 µM
- GI50 ([21]; read-out: GI50): 2.49 µM
- CC50 ([21]; read-out: LC50 (the source's name)): 29 µM
- IC (TGI) ([22]; OVCAR-4, 48 h): 20.8 µM
- GI50 ([22]; OVCAR-4, read-out: GI50): 5.63 µM
- CC50 ([22]; OVCAR-4, read-out: LC50 (the source's name)): 63.1 µM
- GI50 ([23]; HCC 2998): 10.1 µM
- IC (TGI) ([23]; HCC 2998, 48 h, read-out: TGI): 23 µM
- CC50 ([23]; HCC 2998, read-out: LC50): 52.3 µM
